Test results as given in patent publication US7138361B2, “Herbicidal heterocycles” (E. I. du Pont de Nemours and Company, priority 2000, dated 2006).

Legend:
Assay type in all cases: in vivo
[1] = tested on: cocklebur (Xanthium strumarium); assay: Test B postemergence; details: 13 to 15 days
Summary of the method: (§1)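 Greenhouse test: chemicals are formulated in a surfactant-containing non-phytotoxic solvent and applied either preemergence to planted seeds or postemergence to plants 2 to 18 cm tall. Response is rated visually versus controls after 13 to 15 days, 0 meaning no effect and 100 complete control.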

wild oat (Avena fatua) = assay: Test B postemergence; details: 13 to 15 days
Summary of the method: as §1

[2] = tested on: lambsquarters (Chenopodium album); assay: Test B postemergence; details: 13 to 15 days
Summary of the method: as §1

[3] = tested on: crabgrass (Digitaria sanguinalis); assay: Test B postemergence; details: 13 to 15 days
Summary of the method: as §1

Sunflower [4] = assay: Test C preemergence; details: Rate 250 g/ha, visual evaluation after 12 to 14 days
[5] = tested on: giant foxtail (Setaria faberii); assay: Test C preemergence
Summary of the method: (§2)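 Response scores (0 no effect to 100 complete control) came from visual comparison with untreated controls 12 to 14 days after treatment. Preemergence application was made to seeded soil; postemergence, to plants at the 1- to 4-leaf stage.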

[6] = tested on: bermudagrass (Cynodon dactylon); assay: Test C preemergence
Summary of the method: as §2

[7] = tested on: velvetleaf (Abutilon theophrasti); assay: Test C preemergence
Summary of the method: as §2

corn (Zea mays) = assay: Test C preemergence
Summary of the method: as §2

[8] = tested on: common ragweed (Ambrosia elatior); assay: Test C preemergence
Summary of the method: as §2

Nightshade = assay: Test C preemergence
[9] = tested on: pigweed (Amaranthus retroflexus); assay: Test C preemergence
Summary of the method: as §2

soybean (Glycine max) = assay: Test C preemergence
Summary of the method: as §2

[10] = tested on: cocklebur (Xanthium strumarium); assay: Test C preemergence
Summary of the method: as §2

[11] = tested on: woolly cupgrass (Eriochloa villosa); assay: Test C preemergence
Summary of the method: as §2

[12] = tested on: Surinam grass (Brachiaria decumbens); assay: Test C preemergence
Summary of the method: as §2

[13] = tested on: lambsquarters (Chenopodium album); assay: Test C preemergence
Summary of the method: as §2

[14] = tested on: johnsongrass (Sorghum halepense); assay: Test C preemergence
Summary of the method: as §2

Sunflower [15] = assay: Test C preemergence
kochia (Kochia scoparia) = assay: Test C preemergence
Summary of the method: as §2

[16] = Rate 125 g/ha, scale 0 (no effect) to 100 (complete control)
[17] = Rate 500 g/ha, scale 0 to 100, 0 is no effect, 100 is complete control
[18] = Preemergence, Rate 500 g/ha, scale 0 to 100
[19] = Rate 62 g/ha, scale 0 to 100, 0 no effect, 100 complete control
[20] = preemergence, Rate 31 g/ha, scale 0 to 100
[21] = preemergence, Rate 250 g/ha, visual evaluation after 12 to 14 days
[22] = preemergence, Rate 125 g/ha, scale 0 to 100, 0 no effect, 100 complete control

CC(C)(C)c1ccn(C2CCN(c3cccc(OC(F)(F)F)c3)C2=O)n1 (centres unmarked) [Compound 49]
Plant response rating, Cocklebur [1, 16]: 0 | Plant response rating, Cocklebur [1, 17]: 30 | Plant response rating, Wild Oat (wild oat (Avena fatua); [16]): 0 | Plant response rating, Wild Oat (wild oat (Avena fatua); [17]): 30 | Plant response rating, Lambsquarters [2, 16]: 30 | Plant response rating, Lambsquarters [2, 17]: 50 | Plant response rating, Crabgrass [3, 16]: 0 | Plant response rating, Crabgrass [3, 17]: 40 | Plant response rating (0 to 100), Sunflower (Sunflower [4]): 30 | Plant response rating, Foxtail, Giant [5, 18]: 100 | Plant response rating, Foxtail, Giant [5, 19]: 0 | Plant response rating, Foxtail, Giant [5, 20]: 0 | Plant response rating (0 to 100), Foxtail, Giant [5, 21]: 100 | Plant response rating, Foxtail, Giant [5, 22]: 100 | Plant response rating, Bermudagrass [6, 18]: 100 | Plant response rating, Bermudagrass [6, 19]: 100 | Plant response rating, Bermudagrass [6, 20]: 0 | Plant response rating (0 to 100 where 0 is no effect and 100 is complete control), Bermudagrass [6, 21]: 100 | Plant response rating, Bermudagrass [6, 22]: 100 | Plant response rating, Velvetleaf [7, 18]: 40 | Plant response rating, Velvetleaf [7, 19]: 0 | Plant response rating, Velvetleaf [7, 20]: 0 | Plant response rating (0 to 100), Velvetleaf [7, 21]: 30 | Plant response rating, Velvetleaf [7, 22]: 0 | Plant response rating, Corn (corn (Zea mays); [18]): 0 | Plant response rating, Corn (corn (Zea mays); [19]): 0 | Plant response rating, Corn (corn (Zea mays); [20]): 0 | Plant response rating (0 to 100), Corn (corn (Zea mays); [21]): 0 | Plant response rating, Corn (corn (Zea mays); [22]): 0 | Plant response rating, Ragweed, Common [8, 18]: 90 | Plant response rating, Ragweed, Common [8, 19]: 0 | Plant response rating, Ragweed, Common [8, 20]: 0 | Plant response rating (0 to 100), Ragweed, Common [8, 21]: 30 | Plant response rating, Ragweed, Common [8, 22]: 30 | Plant response rating, Nightshade (Nightshade; Rate 31 g/ha, scale 0 to 100): 0 | Plant response rating, Nightshade (Nightshade; [19]): 0 | Plant response rating, Nightshade (Nightshade; Rate 125 g/ha, scale 0 to 100, 0 no effect, 100 complete control): 30 | Plant response rating, Nightshade (Nightshade; Rate 500 g/ha, scale 0 to 100): 90 | Plant response rating, Pigweed [9, 18]: 100 | Plant response rating, Pigweed [9, 19]: 100 | Plant response rating, Pigweed [9, 20]: 70 | Plant response rating (0 to 100), Pigweed [9, 21]: 100 | Plant response rating, Pigweed [9, 22]: 100 | Plant response rating, Soybean (soybean (Glycine max); [18]): 80 | Plant response rating, Soybean (soybean (Glycine max); [19]): 0 | Plant response rating, Soybean (soybean (Glycine max); [20]): 0 | Plant response rating (0 to 100), Soybean (soybean (Glycine max); [21]): 50 | Plant response rating, Soybean (soybean (Glycine max); [22]): 40 | Plant response rating, Cocklebur [10, 18]: 20 | Plant response rating, Cocklebur [10, 19]: 0 | Plant response rating, Cocklebur [10, 20]: 0 | Plant response rating (0 to 100), Cocklebur [10, 21]: 0 | Plant response rating, Cocklebur [10, 22]: 0 | Plant response rating, Cupgrass, Woolly [11, 18]: 100 | Plant response rating, Cupgrass, Woolly [11, 19]: 30 | Plant response rating, Cupgrass, Woolly [11, 20]: 20 | Plant response rating (0 to 100), Cupgrass, Woolly [11, 21]: 70 | Plant response rating, Cupgrass, Woolly [11, 22]: 60 | Plant response rating, Surinam grass [12, 18]: 80 | Plant response rating, Surinam grass [12, 19]: 0 | Plant response rating, Surinam grass [12, 20]: 0 | Plant response rating (0 to 100), Surinam grass [12, 21]: 70 | Plant response rating, Surinam grass [12, 22]: 0 | Plant response rating, Lambsquarters [13, 18]: 100 | Plant response rating, Lambsquarters [13, 19]: 100 | Plant response rating, Lambsquarters [13, 20]: 100 | Plant response rating (0 to 100), Lambsquarters [13, 21]: 100 | Plant response rating, Lambsquarters [13, 22]: 100 | Plant response rating, Johnsongrass [14, 18]: 90 | Plant response rating, Johnsongrass [14, 19]: 0 | Plant response rating, Johnsongrass [14, 20]: 0 | Plant response rating (0 to 100), Johnsongrass [14, 21]: 50 | Plant response rating, Johnsongrass [14, 22]: 0 | Plant response rating, Sunflower (Sunflower [15]; [19]): 20 | Plant response rating, Sunflower (Sunflower [15]; Rate 500 g/ha, scale 0 to 100): 80 | Plant response rating, Kochia (kochia (Kochia scoparia); [18]): 100 | Plant response rating, Kochia (kochia (Kochia scoparia); [19]): 90 | Plant response rating, Kochia (kochia (Kochia scoparia); [20]): 50 | Plant response rating (0 to 100), Kochia (kochia (Kochia scoparia); [21]): 100 | Plant response rating, Kochia (kochia (Kochia scoparia); [22]): 90
